Experimental data reported in ChEMBL document CHEMBL3991944, “Enantiomers of spiro-oxindole compounds and their uses as therapeutic agents” (2013).
In brackets after ≈: the same amount, converted by molar mass. Activity calls are given as the source filed them.

What was measured:
[1] = Solubility of the compound in 60:40 of labrasol/capryol 90; format: physicochemical
[2] = Solubility of the compound in tween 80; format: physicochemical
[3] = target: Sodium channel protein type 9 subunit alpha (Homo sapiens) (UniProt Q15858); conditions: HEK293
[4] = Solubility of the compound in PEG 400; format: physicochemical
[5] = Solubility of the compound in labrasol; format: physicochemical
[6] = Solubility of the compound in capryol 90; format: physicochemical
Rattus norvegicus [7] = assay: Analgesic activity in rat model of chronic constriction injury-induced neuropathic pain assessed as reversal of pain response at 2% (w/v) administered topically as ointment measured upto 1 hr by electrovonfrey anesthesiometry; format: functional
[8] = Solubility of the compound in propylene glycol; format: physicochemical
[9] = Solubility of the compound in 60:40 of labrasol/PEG 400; format: physicochemical
[10] = Solubility of the compound in 60:40 of labrasol/transcutol; format: physicochemical
Homo sapiens [11] = assay: Toxicity in human assessed as change in pulse rate at 4 to 8% (w/w) administered topically as ointment for 21 consecutive days during phase-1 clinical trial; conditions: topical_or_ocular
Homo sapiens [12] = assay: Toxicity in human assessed as change in quiescent resting state at 4 to 8% (w/w) administered topically as ointment for 21 consecutive days during phase-1 clinical trial; conditions: topical_or_ocular
Homo sapiens [13] = assay: Toxicity in human assessed as decrease in skin irritation at 4 to 8% (w/w) administered topically as ointment for 21 consecutive days during phase-1 clinical trial; conditions: topical_or_ocular
Homo sapiens [14] = assay: Toxicity in human assessed as change in physical appearance at 4 to 8% (w/w) administered topically as ointment for 21 consecutive days during phase-1 clinical trial; conditions: topical_or_ocular
Rattus norvegicus [15] = assay: Analgesic activity in rat model of CFA-induced chronic inflammatory pain assessed as increase in Von Frey mechanical paw withdrawal threshold at 8% (w/v) administered topically by electrovonfrey anesthesiometry relative to baseline; format: functional
Homo sapiens [16] = assay: Toxicity in human assessed as serious adverse events at 4 to 8% (w/w) administered topically as ointment for 21 consecutive days during phase-1 clinical trial; conditions: topical_or_ocular
Homo sapiens [17] = assay: Analgesic activity in human assessed as dental pain relief at 500 mg administered as single dose measured 4 to 12 hrs post dose; format: functional
Homo sapiens [18] = assay: Toxicity in human assessed as change in vital signs at 4 to 8% (w/w) administered topically as ointment for 21 consecutive days during phase-1 clinical trial; conditions: topical_or_ocular
Rattus norvegicus [19] = assay: Analgesic activity in rat model of CFA-induced chronic inflammatory pain assessed as reduction in nociceptive threshold at 200 mg/kg, po by Von Frey filament assay; format: functional, organism-based
Homo sapiens [20] = assay: Toxicity in human assessed as mortality at 4 to 8% (w/w) administered topically as ointment for 21 consecutive days during phase-1 clinical trial; conditions: topical_or_ocular
Homo sapiens [21] = assay: Toxicity in human assessed as change in QTc interval at 4 to 8% (w/w) administered topically as ointment for 21 consecutive days during phase-1 clinical trial; conditions: topical_or_ocular
Homo sapiens [22] = assay: Toxicity in human assessed as decrease in skin irritation at 4 to 8% (w/w) administered topically as ointment for 21 consecutive days measured 7 days post last dose during phase-1 clinical trial; conditions: topical_or_ocular, 168 h
Homo sapiens [23] = assay: Toxicity in human assessed as change in laboratory assessments at 4 to 8% (w/w) administered topically as ointment for 21 consecutive days during phase-1 clinical trial; conditions: topical_or_ocular
Rattus norvegicus [24] = assay: Drug level in rat model of CFA-induced chronic inflammatory pain assessed as high plasma concentration at 200 mg/kg, po […]; format: ADME, organism-based; conditions: in vivo
Homo sapiens [25] = organism: Homo sapiens; assay: Toxicity in human assessed as increase in discomfort at 0.1% compound solution for 4 consecutive days during phase-1 clinical trial

Chain of Sodium channel protein type 9 subunit alpha (Homo sapiens) (Q15858 whole entry, looked up): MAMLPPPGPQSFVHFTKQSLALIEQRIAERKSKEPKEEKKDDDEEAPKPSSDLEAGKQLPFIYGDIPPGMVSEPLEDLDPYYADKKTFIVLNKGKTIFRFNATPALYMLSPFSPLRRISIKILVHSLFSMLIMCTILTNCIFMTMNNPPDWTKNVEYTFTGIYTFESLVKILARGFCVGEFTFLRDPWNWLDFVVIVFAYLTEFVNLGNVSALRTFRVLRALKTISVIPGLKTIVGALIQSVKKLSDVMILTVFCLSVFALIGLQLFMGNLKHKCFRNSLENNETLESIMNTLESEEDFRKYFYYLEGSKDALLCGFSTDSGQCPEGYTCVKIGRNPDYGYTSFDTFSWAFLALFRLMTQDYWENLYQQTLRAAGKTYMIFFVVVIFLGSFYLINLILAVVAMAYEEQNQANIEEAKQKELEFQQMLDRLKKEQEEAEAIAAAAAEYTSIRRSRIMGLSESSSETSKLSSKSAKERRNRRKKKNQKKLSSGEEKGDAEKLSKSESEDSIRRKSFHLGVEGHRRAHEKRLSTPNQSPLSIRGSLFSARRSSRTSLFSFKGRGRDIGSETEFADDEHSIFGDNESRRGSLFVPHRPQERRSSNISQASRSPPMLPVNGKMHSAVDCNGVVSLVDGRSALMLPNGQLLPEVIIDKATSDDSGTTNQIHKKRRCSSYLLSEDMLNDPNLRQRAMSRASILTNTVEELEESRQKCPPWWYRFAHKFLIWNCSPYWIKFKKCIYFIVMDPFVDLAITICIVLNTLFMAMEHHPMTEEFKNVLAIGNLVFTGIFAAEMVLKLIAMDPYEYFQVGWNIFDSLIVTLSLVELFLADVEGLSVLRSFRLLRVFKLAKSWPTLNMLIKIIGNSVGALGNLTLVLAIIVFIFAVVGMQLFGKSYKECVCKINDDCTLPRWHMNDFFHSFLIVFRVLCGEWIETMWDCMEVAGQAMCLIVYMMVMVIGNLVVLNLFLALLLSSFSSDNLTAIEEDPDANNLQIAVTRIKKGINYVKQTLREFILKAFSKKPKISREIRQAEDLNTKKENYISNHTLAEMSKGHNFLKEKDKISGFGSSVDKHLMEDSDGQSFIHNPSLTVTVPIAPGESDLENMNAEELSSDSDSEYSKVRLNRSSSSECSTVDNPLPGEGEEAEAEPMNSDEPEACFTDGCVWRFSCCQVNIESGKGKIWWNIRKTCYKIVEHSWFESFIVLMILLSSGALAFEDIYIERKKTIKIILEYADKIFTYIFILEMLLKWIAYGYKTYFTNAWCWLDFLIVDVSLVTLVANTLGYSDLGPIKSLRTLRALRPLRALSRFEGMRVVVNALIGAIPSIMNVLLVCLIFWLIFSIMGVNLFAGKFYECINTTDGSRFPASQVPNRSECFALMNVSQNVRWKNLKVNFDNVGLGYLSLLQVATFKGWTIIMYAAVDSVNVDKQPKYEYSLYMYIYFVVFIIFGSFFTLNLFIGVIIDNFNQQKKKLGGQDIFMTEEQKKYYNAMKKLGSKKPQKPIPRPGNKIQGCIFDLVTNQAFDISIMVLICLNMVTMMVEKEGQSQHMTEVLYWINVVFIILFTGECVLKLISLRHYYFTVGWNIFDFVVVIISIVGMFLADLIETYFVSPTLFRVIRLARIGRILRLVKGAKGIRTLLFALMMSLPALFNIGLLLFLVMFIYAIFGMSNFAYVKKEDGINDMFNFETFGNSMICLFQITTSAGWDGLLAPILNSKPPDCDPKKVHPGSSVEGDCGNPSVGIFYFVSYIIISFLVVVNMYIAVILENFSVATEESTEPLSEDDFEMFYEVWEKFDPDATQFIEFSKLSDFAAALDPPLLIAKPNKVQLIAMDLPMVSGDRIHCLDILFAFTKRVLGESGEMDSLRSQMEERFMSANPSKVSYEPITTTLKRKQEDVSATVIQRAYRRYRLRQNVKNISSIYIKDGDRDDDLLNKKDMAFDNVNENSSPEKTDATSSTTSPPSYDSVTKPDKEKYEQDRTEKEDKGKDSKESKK

Row | SMILES | solubility [1] | solubility [2] | Kr [3] | solubility [4] | solubility [5] | solubility [6] | Activity (Rattus norvegicus [7]) | solubility [9] | solubility [10] | Activity (Rattus norvegicus [19]) | also measured
1 | O=C1N(Cc2ccc(C(F)(F)F)o2)c2ccccc2C12COc1cc3c(cc12)OCO3 (configuration not stated) | 44.4 mg/mL (≈ 103 mM) | 64 mg/mL (≈ 149 mM) | > 10 µM | < 50 mg/mL | 72.5 mg/mL (≈ 169 mM) | 18.1 mg/mL (≈ 42.2 mM) | Active | 70.4 mg/mL (≈ 164 mM) | 74.2 mg/mL (≈ 173 mM) | – | solubility [8]: 2.7 mg/mL (≈ 6.29 mM)
2 | O=C1N(Cc2ccc(C(F)(F)F)o2)c2ccccc2[C@]12COc1cc3c(cc12)OCO3 [FUNAPIDE] | 191 mg/mL (≈ 445 mM) | > 123 mg/mL | > 10 µM | > 55 mg/mL | 231 mg/mL (≈ 538 mM) | 96 mg/mL (≈ 224 mM) | Active | 182 mg/mL (≈ 424 mM) | 186 mg/mL (≈ 433 mM) | Active | Activity (Homo sapiens [11]): Non-Toxic; Activity (Homo sapiens [12]): Non-Toxic; Activity (Homo sapiens [13]): Non-Toxic; Activity (Homo sapiens [14]): Non-Toxic; Activity (Rattus norvegicus [15]): 45.06 - 45.1%; Activity (Homo sapiens [16]): Non-Toxic; Activity (Homo sapiens [17]): Active; Activity (Homo sapiens [18]): Non-Toxic; Activity (Homo sapiens [20]): Non-Toxic; Activity (Homo sapiens [21]): Non-Toxic; Activity (Homo sapiens [22]): Non-Toxic; Activity (Homo sapiens [23]): Non-Toxic
3 | O=C1N(Cc2ccc(C(F)(F)F)o2)c2ccccc2[C@@]12COc1cc3c(cc12)OCO3 | – | – | > 10 µM | – | – | – | inactive | – | – | Active | Drug uptake (Rattus norvegicus [24]): Active
4 | CCCCCCCCCCCCOS(=O)(=O)[O-].[Na+] [SODIUM LAURYL SULFATE] | – | – | – | – | – | – | – | – | – | – | Activity (Homo sapiens [25]): Toxic
